# Read-outs that look alike come from different tables or passages of the source.
# System: PKC mediated IL-2 production in human primary T cells
# Test: IL-2 ELISA, human primary T cell, anti CD3+CD28+ (whole cell functional assay for PKC mediated IL-2 production)
# Assay type: cell-based
# Procedure: Human primary T cells were prepared as follows. Fresh PBMC's from All Cells (Cat # PB002) were re-suspended in RPMI (RPMI-1640 with L-Glutamine; Mediatech, Inc., Herndon Va., cat. #10-040-CM) with 10% FBS and seeded into flasks and incubated at 37° C. for 2 hours to allow the monocytes to adhere. The non-adherent cells were then centrifuged and re-suspended in RPMI medium containing 40 U/ml IL2 and seeded into a flask pre-coated with 1 μg/ml aCD3 and 5 ug/ml aCD28 (Anti-Human CD3, BD Pharmingen Catalog #555336, Anti-Human CD28, Beckman Coulter Catalog #IM1376). The cells were stimulated for 3-4 days, then transferred to a fresh flask and maintained in RPMI (RPMI-1640 with L-Glutamine; Mediatech, Inc., Herndon Va., cat. #10-040-CM) with 10% FBS and 40 U/ml IL-2.
# Human primary T cells (100,000 cells per well) were pre-incubated with or without test compound in RPMI-1640 with L-Glutamine and 10% FBS for 1 hour at 37° C. Cells were then stimulated by transferring them to round-bottom 96-well plates pre-coated with 1 μg/ml aCD3 and 5 μg/ml aCD28. For counter assay, cells were instead stimulated by adding 8× stock solutions of PMA and ionomycin in RPMI-1640 with L-Glutamine and 10% FBS (for final concentrations of 0.5 ng/ml PMA and 0.1 μM ionomycin, both from Calbiochem). Cells were incubated at 37° C. for 24 hours before 100 μL supernatants were harvested for quantification of IL-2 by ELISA using Human IL-2 Duoset ELISA Kit from R and D Systems, Cat. # DY202E.
# Compounds 1-156 were tested in a whole cell functional assay for PKC mediated IL-2 production as follows. Human primary T cell isolation and culture: Human primary T cells were prepared as follows. Whole blood was obtained from a healthy volunteer, mixed 1:1 with PBS, layered on to Ficoll Hypaque (Amersham Pharmacia Biotech, Piscataway, N.J., Catalog #17-1440-03) in 2:1 blood/PBS:ficoll ratio and centrifuged for 30 minutes at 4° C. at 1750 rpm. The cells at the serum: ficoll interface were recovered and washed twice with 5 volumes of PBS. These freshly isolated human peripheral blood mononuclear cells were cultured in Yssel's medium containing 40 U/ml IL2 in a flask pre-coated with 1 μg/ml aCD3 and 5 μg/ml aCD28 (Anti-Human CD3, BD Pharmingen Catalog #555336, Anti-Human CD28, Beckman Coulter Catalog #IM1376). The cells were stimulated for 3-4 days, then transferred to a fresh flask and maintained in RPMI (RPMI-1640 with L-Glutamine; Mediatech, Inc., Herndon Va., cat. #10-040-CM) with 10% FBS and 40 U/ml IL-2. The primary T-cells were then washed twice with PBS to remove the IL-2.
# Primary T cell stimulation and IL2 ELISA: Human primary T cells (100,000 cells per well) were pre-incubated with or without test compound in Yssel's medium for 1 hour at 37° C. Cells were then stimulated by transferring them to round-bottom 96-well plates pre-coated with 1 μg/ml aCD3 and 5 μg/ml αCD28. For counter assay, cells were instead stimulated by adding 8× stock solutions of PMA and ionomycin in Yssels (for final concentrations of 0.5 ng/ml PMA and 0.1 uM ionomycin, both from Calbiochem). Cells were incubated at 37° C. for 24 hours before 100 μL supernatants were harvested for quantification of IL-2 by ELISA using Human IL-2 Duoset ELISA Kit from R and D Systems, Cat. # DY202E.
# [1] = 24 h, human primary T cells stimulated with anti-CD3 + anti-CD28, IL-2 by ELISA, read-out: IC50 for blocking IL-2 production
# [2] = human primary T cells stimulated with anti-CD3 + anti-CD28, 24 h, IL-2 by ELISA, 8 pt, read-out: IL2 ELISA, Human primary T cell, anti-CD3 + CD28, 8 pt (IC50)
SMILES,IC50 [1] [µM],IC50 [2] [µM]
"Fc1cc(C2CC2)c(-n2cnnn2)cc1Nc1nccc(NC[C@@H]2CCCN3CCCC[C@H]23)n1 [Compound 46, N2-(4-cyclopropyl-2-fluoro-5-(1H-tetrazol-1-yl)phenyl)-N4-(((1S,9aR)-octahydro-1H-quinolizin-1-yl)methyl)pyrimidine-2,4-diamine]",< 30,1.12
"C[C@H](O)COc1cc(F)c(Nc2ncc(C#N)c(NC[C@@H]3CCCN4CCCC[C@H]34)n2)cc1-n1nnn(C)c1=O [Compound 142, 2-((2-fluoro-4-((S)-2-hydroxypropoxy)-5-(4-methyl-5-oxo-4,5-dihydro-1H-tetrazol-1-yl)phenyl)amino)-4-((((1 S,9aR)-octahydro-2H-quinolizin-1-yl)methyl)amino)pyrimidine-5-carbonitrile]",< 30,0.0662
"Cc1nnnn1-c1ccc(F)c(Nc2ncc(C(F)(F)F)c(NC[C@@H]3CCCN4CCCC[C@H]34)n2)c1 [Compound 104, N2-(2-fluoro-5-(5-methyl-1H-tetrazol-1-yl)phenyl)-5-(trifluoromethyl)-N4-(((1S,9aR)-octahydro-1H-quinolizin-1-yl)methyl)pyrimidine-2,4-diamine]",< 30,26.8
"Cc1nnnn1-c1cc(Nc2ncc(C#N)c(NC[C@@H]3CCCN4CCCC[C@H]34)n2)ccc1F [Compound 114, 4-(((1S,9aR)-octahydro-1H-quinolizin-1-yl)methylamino)-2-(4-fluoro-3-(5-methyl-1H-tetrazol-1-yl)phenylamino)pyrimidine-5-carbonitrile]",< 30,0.0365
"COCCOCCOc1cc(F)c(Nc2ncc(C#N)c(NC[C@@H]3CCCN4CCCC[C@H]34)n2)cc1-n1nnn(C)c1=O [Compound 133, 2-((2-fluoro-4-(2-(2-methoxyethoxyl)ethoxy)-5-(4-methyl-5-oxo-4,5-dihydro-1H-tetrazol-1-yl)phenyl)amino)-4-((((1S,9aR)-octahydro-2H-quinolizin-1-yl)methyl)amino)pyrimidine-5-carbonitrile]",< 30,0.992
"CN(C)c1cnc(Nc2cc(C#N)c(C3CC3)cc2F)nc1NC[C@@H]1CCCN2CCCC[C@H]12 [Compound 95, 5-(4-(((1S,9aR)-octahydro-1H-quinolizin-1-yl)methylamino)-5-(dimethylamino)pyrimidin-2-ylamino)-2-cyclopropyl-4-fluorobenzonitrile]",< 30,1.74
"Cc1ccc(Nc2ncc(F)c(NC[C@@H]3CCCN4CCCC[C@H]34)n2)cc1-n1cnnn1 [Compound 4, 5-fluoro-N4-(((1S,9aR)-octahydro-1H-quinolizin-1-yl)methyl)-N2-(4-methyl-3-(1H-tetrazol-1-yl)phenyl)pyrimidine-2,4-diamine]",< 30,0.142
"Cc1nnnn1-c1cc(Nc2ncc(N(C)C)c(NC[C@@H]3CCCN4CCCC[C@H]34)n2)ccc1F [Compound 88, N2-(4-fluoro-3-(5-methyl-1H-tetrazol-1-yl)phenyl)-N4-(((1S,9aR)-octahydro-1H-quinolizin-1-yl)methyl)-N5,N5-dimethylpyrimidine-2,4,5-triamine]",< 30,12.7
"Cc1nnnn1-c1ccc(F)c(Nc2nccc(NC[C@@H]3CCCN4CCCC[C@H]34)n2)c1 [Compound 50, N2-(2-fluoro-5-(5-methyl-1H-tetrazol-1-yl)phenyl)-N4-(((1S,9aR)-octahydro-1H-quinolizin-1-yl)methyl)pyrimidine-2,4-diamine]",< 30,2
"CCOC(=O)C(C)(C)Oc1cc(F)c(Nc2ncc(C#N)c(NC[C@@H]3CCCN4CCCC[C@H]34)n2)cc1-n1nnn(C)c1=O [Compound 150, ethyl 2-(4-((5-cyano-4-((((1S,9aR)-octahydro-2H-quinolizin-1-yl)methyl)amino)pyrimidin-2-yl)amino)-5-fluoro-2-(4-methyl-5-oxo-4,5-dihydro-1H-tetrazol-1-yl)phenoxy)-2-methylpropanoate]",< 30,1.14
"Cn1nnn(-c2cc(Nc3ncc(C(F)(F)F)c(NC[C@@H]4CCCN5CCCC[C@H]45)n3)c(F)cc2C2CC2)c1=O [Compound 102, 1-(5-(4-(((1S,9aR)-octahydro-1H-quinolizin-1-yl)methylamino)-5-(trifluoromethyl)pyrimidin-2-ylamino)-2-cyclopropyl-4-fluorophenyl)-4-methyl-1H-tetrazol-5(4H)-one]",< 30,12.6
"Cc1ccc(Nc2ncc(C#N)c(NC[C@@H]3CCCN4CCCC[C@H]34)n2)cc1-n1cnnn1 [Compound 117, 4-(((1S,9aR)-octahydro-1H-quinolizin-1-yl)methylamino)-2-(4-methyl-3-(1H-tetrazol-1-yl)phenylamino)pyrimidine-5-carbonitrile]",< 30,0.0117
"Fc1cc(C2CC2)c(-n2cnnn2)cc1Nc1ncc(F)c(NC[C@@H]2CCCN3CCCC[C@H]23)n1 [Compound 2, N2-(4-cyclopropyl-2-fluoro-5-(1H-tetrazol-1-yl)phenyl)-5-fluoro-N4-(((1S,9aR)-octahydro-1H-quinolizin-1-yl)methyl)pyrimidine-2,4-diamine]",< 30,0.372
"COc1cc(Nc2ncc(N(C)C)c(NC[C@@H]3CCCN4CCCC[C@H]34)n2)cc(-n2nnnc2C)c1 [Compound 91, N4-(((1S,9aR)-octahydro-1H-quinolizin-1-yl)methyl)-N2-(3-methoxy-5-(5-methyl-1H-tetrazol-1-yl)phenyl)-N5,N5-dimethylpyrimidine-2,4,5-triamine]",< 30,7.94
"COc1ccc(Nc2ncc(Cl)c(NC[C@@H]3CCCN4CCCC[C@H]34)n2)cc1-n1nnnc1C [Compound 37, 5-chloro-N4-(((1S,9aR)-octahydro-1H-quinolizin-1-yl)methyl)-N2-(4-methoxy-3-(5-methyl-1H-tetrazol-1-yl)phenyl)pyrimidine-2,4-diamine]",< 30,0.0872
"COc1cnc(Nc2ccc3oc(=O)[nH]c3c2)nc1NC[C@@H]1CCCN2CCCC[C@H]12 [Compound 84, 5-(4-(((1S,9aR)-octahydro-1H-quinolizin-1-yl)methylamino)-5-methoxypyrimidin-2-ylamino)benzo[d]oxazol-2(3H)-one]",< 30,15.4
"OCCOc1ccc(Nc2ncc(Cl)c(NC[C@@H]3CCCN4CCCC[C@H]34)n2)cc1-n1cnnn1 [Compound 139, 2-(4-((5-chloro-4-((((1S,9aR)-octahydro-2H-quinolizin-1-yl)methyl)amino)pyrimidin-2-yl)amino)-2-(1H-tetrazol-1-yl)phenoxy)ethan-1-ol]",< 30,0.0175
"Cn1nnn(-c2cc(Nc3ncc(Cl)c(NC[C@@H]4CCCN5CCCC[C@H]45)n3)c(F)cc2C2CC2)c1=O [Compound 34, 1-(5-(4-(((1S,9aR)-octahydro-1H-quinolizin-1-yl)methylamino)-5-chloropyrimidin-2-ylamino)-2-cyclopropyl-4-fluorophenyl)-4-methyl-1H-tetrazol-5(4H)-one]",< 30,0.67
"COc1cnc(Nc2ccc(C3CC3)c(C#N)c2)nc1NC[C@@H]1CCCN2CCCC[C@H]12 [Compound 81, 5-(4-(((1S,9aR)-octahydro-1H-quinolizin-1-yl)methylamino)-5-methoxypyrimidin-2-ylamino)-2-cyclopropylbenzonitrile]",< 30,1.31
